Patent publication USRE47193E1, “Selectively substituted quinoline compounds” (EISAI R&D MANAGEMENT CO., LTD., priority 2013, dated 2019)

How the values were obtained:
[1] = test system: Human TLR7/8; experiment: Human PBMC cell-based assay, TLR7/8 stimulus (RNA-Ig), cytokine ELISA; conditions: primary human PBMC assay, TLR7/8 potency; ligand not given; read-out: Human PBMCs IC50
Outline: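 The agonist was RNA-Ig, a U1 snRNA-derived 26-mer RNA (2.5 μM) complexed with RNA-cross-reacting anti-ssDNA mAb (1:25 or 1 ug/ml), added after 30 min compound pre-incubation (0.1% DMSO). Density-gradient PBMC from healthy donors, 2×10^5/well, were stimulated 20 h at 37 °C; cytokines quantified by ELISA.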

[2] = target: T1, mouse TLR7 (Mus musculus, UniProt P58681); experiment: Short-term in vivo (STIV) assay: oral dosing, R848 s.c., plasma IL-6; design: female BALB/c mice (Jackson Labs, Bar Harbor, Me.) were dosed by oral gavage; tissue Jackson Labs; host or cells: living female BALB/c mice; plasma IL-6 after s.c. R848
T1 sequence (P58681 27-1050): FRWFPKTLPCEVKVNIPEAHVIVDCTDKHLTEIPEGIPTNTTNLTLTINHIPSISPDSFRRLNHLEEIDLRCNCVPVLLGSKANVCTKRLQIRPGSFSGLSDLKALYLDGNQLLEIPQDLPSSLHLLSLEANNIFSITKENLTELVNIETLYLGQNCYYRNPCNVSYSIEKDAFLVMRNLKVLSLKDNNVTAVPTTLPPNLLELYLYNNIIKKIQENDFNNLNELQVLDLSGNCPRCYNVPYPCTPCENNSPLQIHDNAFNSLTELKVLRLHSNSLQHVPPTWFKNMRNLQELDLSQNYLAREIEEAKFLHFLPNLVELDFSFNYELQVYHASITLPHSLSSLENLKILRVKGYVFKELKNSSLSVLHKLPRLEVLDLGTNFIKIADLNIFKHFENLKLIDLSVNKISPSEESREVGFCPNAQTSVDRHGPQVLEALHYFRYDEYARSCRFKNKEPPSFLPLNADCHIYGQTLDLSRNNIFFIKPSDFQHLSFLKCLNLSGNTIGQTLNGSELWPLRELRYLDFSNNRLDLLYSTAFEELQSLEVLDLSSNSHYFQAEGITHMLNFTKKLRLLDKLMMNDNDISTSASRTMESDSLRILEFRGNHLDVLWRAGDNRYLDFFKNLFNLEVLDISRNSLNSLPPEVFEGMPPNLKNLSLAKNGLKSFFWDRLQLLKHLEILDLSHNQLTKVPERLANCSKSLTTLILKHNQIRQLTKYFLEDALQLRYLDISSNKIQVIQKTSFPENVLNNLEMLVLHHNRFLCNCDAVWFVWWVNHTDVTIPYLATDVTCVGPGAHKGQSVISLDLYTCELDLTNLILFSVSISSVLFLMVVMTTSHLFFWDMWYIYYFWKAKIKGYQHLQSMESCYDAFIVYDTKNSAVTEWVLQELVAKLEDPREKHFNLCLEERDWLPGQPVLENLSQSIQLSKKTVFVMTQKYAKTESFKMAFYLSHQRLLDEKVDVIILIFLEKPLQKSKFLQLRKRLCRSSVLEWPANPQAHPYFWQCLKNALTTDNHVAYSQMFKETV
Outline: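 Female BALB/c mice (6–8 weeks) dosed orally with compound in 0.5% aqueous methyl-cellulose at 33, 100 or 300 mg/kg; at various times afterwards given 15 ug R848 s.c. to stimulate TLR7. Plasma IL-6 measured by ELISA to gauge potency and duration of action.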

[3] = test system: Mouse Splenocytes; experiment: Mouse spleen cell-based assay (R848, IL-6 ELISA); conditions: BALB/c spleen cells, 370 nM R848
Method: Mouse Spleen cell-based assay. Spleens were harvested from female BALB/c mice (Jackson Labs, Bar Harbor, Me.) euthanized by CO2. A single cell suspension was obtained by passing spleens through a 40 μm an nylon cell strainer. Cells were washed twice with 50 ml PBS (Mediatech, Inc., Manassas, Va.) and red blood cells were lysed in 5 ml RBC Lysis buffer (eBioscience, Inc., San Diego, Calif.) for 5 minutes at room temperature. Cells were washed twice more in PBS and finally resuspended in supplemented RPMI-1640 at 2.5×10^6 cells/ml. Cells were plated at 100 μl/well (2.5×10^5 cells/well) in 96-well tissue culture treated plates (Falcon). Serial dilutions of compounds solubilized in 100% DMSO were added in triplicate to cells to yield a final concentration of 0.1% DMSO. Cells were incubated with compound for 30 minutes at 37° C., 5% CO2 before adding 100 μl/well of 740 nM R848 (Resiquimod; GLSynthesis, Worcester, Mass.) in complete media for a final concentration of 370 nM R848. Cells were incubated for 20 hours at 37° C., 5% CO2. Culture supernatants were collected, and levels of IL-6 were assessed by standard ELISA procedure according to the manufacturer's recommended protocol (BD Biosciences, Inc., San Diego, Calif.).

| Compound | IC50 [1] [nM] | % Suppression vs. Vehicle ([2]; 6 h, 33 mg/kg) [%] | % Suppression vs. Vehicle ([2]; 6 h, 100 mg/kg) [%] | % Suppression vs. Vehicle ([2]; 19 h, 100 mg/kg) [%] | IC50 ([3]; Mus musculus, Splenocyte) [nM] | also measured |
| --- | --- | --- | --- | --- | --- | --- |
| CC1CN(c2ccc(C#N)c3ncccc23)CC(CN2CCNCC2C)O1 (centres unmarked) [ER-887268] | 5 | 98 | 99 | 95 | 2120 | % Suppression vs. Vehicle ([2]; 6 h, 11 mg/kg): 80%; % Suppression vs. Vehicle ([2]; 19 h, 11 mg/kg): 25%; % Suppression vs. Vehicle ([2]; 19 h, 33 mg/kg): 63% |
| C[C@@H]1CN(c2ccc(C#N)c3ncccc23)C[C@H](CN2CCC(N)CC2)O1 [ER-888070] | 3 | 88 | 100 | 90 | 76 | % Suppression vs. Vehicle ([2]; 6 h, 300 mg/kg): 100%; % Suppression vs. Vehicle ([2]; 19 h, 33 mg/kg): 70%; % Suppression vs. Vehicle ([2]; 19 h, 300 mg/kg): 99% |
| C[C@@H]1CN(c2ccc(C#N)c3ncccc23)C[C@H](CN2CCC(N3CCCC3)CC2)O1 [ER-888480] | 1 | 100 | 100 | 98 | – | % Suppression vs. Vehicle ([2]; 6 h, 11 mg/kg): 85%; % Suppression vs. Vehicle ([2]; 19 h, 11 mg/kg): 63%; % Suppression vs. Vehicle ([2]; 19 h, 33 mg/kg): 89%; IC50 [3]: 87 nM |
| CC1CN(c2ccc(C#N)c3ncccc23)CC(CN2CC(N3CCCC3)C2)O1 (centres unmarked) [ER-889469] | 13 | 100 | 100 | 73 | 97 | % Suppression vs. Vehicle ([2]; 3 h, 33 mg/kg): 100%; % Suppression vs. Vehicle ([2]; 3 h, 100 mg/kg): 100% |
| CC1CN(c2ccc(C#N)c3ncccc23)CC(CN2CC(N3CCCCC3)C2)O1 (centres unmarked) [ER-889470] | 12 | 96 | 100 | 78 | 152 | % Suppression vs. Vehicle ([2]; 3 h, 33 mg/kg): 100%; % Suppression vs. Vehicle ([2]; 3 h, 100 mg/kg): 98% |
| C[C@@H]1CN(c2ccc(C#N)c3ncccc23)C[C@H](CN2CCCN(C)CC2)O1 [ER-889601] | – | 95 | 90 | 96 | – | % Suppression vs. Vehicle ([2]; 3 h, 100 mg/kg): 96%; IC50 [3]: 179 nM |
| CC1CN(c2ccc(C#N)c3ncccc23)CC(CN2CCC(N3CCOCC3)CC2)O1 (centres unmarked) [ER-890093] | 22 | 92 | 95 | – | 88 | % Suppression vs. Vehicle ([2]; 3 h, 100 mg/kg): 92%; % Suppression vs. Vehicle ([2]; 13 h, 33 mg/kg): 98%; % Suppression vs. Vehicle ([2]; 13 h, 100 mg/kg): 100% |
| CC1CN(c2ccc(C#N)c3ncccc23)CC(CN2CCC(N3CCCCC3)C2)O1.Cl.Cl (centres unmarked) [ER-890311] | – | – | – | – | – | % Suppression vs. Vehicle ([2]; 3 h, 33 mg/kg): 88%; % Suppression vs. Vehicle ([2]; 19 h, 3.67 mg/kg): 0%; % Suppression vs. Vehicle ([2]; 19 h, 11 mg/kg): 0%; % Suppression vs. Vehicle ([2]; 19 h, 33 mg/kg): 0%; IC50 [3]: 428 nM |
| C[C@@H]1CN(c2ccc(C#N)c3ncccc23)C[C@H](CN2CCN(C)[C@@H](C)C2)O1 [ER-890831] | 1 | – | – | – | – | IC50 [3]: 170 nM |
| C[C@@H]1CN(c2ccc(C#N)c3ncccc23)C[C@H](CN2CC[C@H](N3CCCC3)C2)O1 [ER-893881] | 9 | 82 | 99 | – | 270 | % Suppression vs. Vehicle ([2]; 3 h, 33 mg/kg): 95%; % Suppression vs. Vehicle ([2]; 13 h, 33 mg/kg): 0%; % Suppression vs. Vehicle ([2]; 13 h, 100 mg/kg): 19% |
| CC1CN(c2ccc(C#N)c3ncccc23)CC(CN2CCC(NS(C)(=O)=O)CC2)O1 (centres unmarked) [ER-893948] | 150 | – | – | – | 420 | – |
| CC(=O)NC1CN(C[C@H]2CN(c3ccc(C#N)c4ncccc34)C[C@@H](C)O2)C1 [ER-894152] | 175 | – | – | – | 660 | – |
| C[C@@H]1CN(c2ccc(C#N)c3ncccc23)C[C@H](CN2CCNC(C)(C)C2)O1 [ER-894655] | 5 | – | – | – | 84 | – |
| CC1CN(c2ccc(C#N)c3ncccc23)CC(CN2CCN(C)C(C)(C)C2)O1 (centres unmarked) [ER-894656] | 7 | – | – | – | 23 | – |
| CCNC(=O)C1CCN(CC2CN(c3ccc(C#N)c4ncccc34)CC(C)O2)CC1 (centres unmarked) [ER-895204] | 23 | 98 | – | – | 51 | % Suppression vs. Vehicle ([2]; 13 h, 33 mg/kg): 22%; % Suppression vs. Vehicle ([2]; 13 h, 100 mg/kg): 43%; % Suppression vs. Vehicle ([2]; 13 h, 300 mg/kg): 99%; % Suppression vs. Vehicle ([2]; 24 h, 33 mg/kg): 39%; % Suppression vs. Vehicle ([2]; 24 h, 100 mg/kg): 39%; % Suppression vs. Vehicle ([2]; 24 h, 300 mg/kg): 78% |
| CC1CN(c2ccc(C#N)c3ncccc23)CC(COc2ncccn2)O1 (centres unmarked) [ER-895325] | 26 | – | – | – | 120 | – |
